Measurements reported in patent publication US20240197712A1, “TGF-BETA INHIBITION FOR IMMUNODEFICIENCY VIRUS REACTIVATION FROM LATENCY, ENHANCEMENT OF IMMUNODEFICIENCY VIRUS-SPECIFIC RESPONSES AND IMMUNODEFICIENCY VIRUS CURE” (Northwestern University, priority 2022, published 2024).

Experiments:
SIVmac251 or SIVmac239 = test: Plasma viral load, SIV-infected ART-treated macaques, 1-2 weeks galunisertib; format: in vivo, rhesus macaques
Method: Rhesus macaques (n=7) were infected with SIVmac251 or SIVmac239 rectally or intravenously (FIG. 9) and ART (Tenofovir [PMPA], Emtricitabine [FTC] and Dolutegravir [DTG]) was initiated between week 12 and 17 post infection. Galunisertib treatment was initiated after 26 or 27 weeks on ART for 7 or 14 days. Galunisertib powder (MedChemExpress—MCE, NJ, USA) was dissolved in water and given orally in a treat twice daily at 5 mg/kg or 10 mg/kg (FIG. 9). Blood viral load was monitored biweekly before and during cART and every 3-4 days during 438 Galunisertib treatment. Colorectal biopsies and LN FNA were collected before and after galunisertib treatment.
Blood was collected in EDTA tubes and plasma was separated by density gradient centrifugation and used for the determination of plasma VL by SIVgag qRT-PCR at NIRC or at Leidos (Quantitative Molecular Diagnostics Core, AIDS and Cancer Virus Program Frederick National Laboratory). Tissue VL from snap frozen colorectal biopsies and LN FNA were performed at Leidos (A14X004, A14X005 and A14X013) as described in (78) or, for the remaining macaques and from PBMC of all macaques they were performed as described in (77).

SIVmac239M2 [1] = test: Cell-associated vDNA in PBMC, colorectal biopsies and lymph nodes; format: in vivo, rhesus macaques
Method: (§1) Blood was collected in EDTA tubes and plasma was separated by density gradient centrifugation and used for the determination of plasma VL by SIVgag qRT-PCR at NIRC or at Leidos (Quantitative Molecular Diagnostics Core, AIDS and Cancer Virus Program Frederick National Laboratory). Tissue VL from snap frozen PBMC pellets, colorectal biopsies and LN FNA were performed as described in (77). SIV-TILDA was performed on freshly stored PBMC before cycle 1 and at the end of cycle 4 of galunisertib by Accelevir, Baltimore, MD.

SIVmac239M2 [2] = test: SIV-IPDA intact and total provirus in PBMC; format: in vivo, rhesus macaques
Method: To determine the impact of galunsiertib on SIV reservoir, CA-vDNA was measured in PBMC, colorectal biopsies and lymph nodes (LN). […] In the gut and LN (right axillary), decreases range from a Log to ⅓ of a Log (gut: median 0.77; range:0.33-0.94 folds LN: median: 0.93; range:0.33-0.98 folds decrease). In the PBMC the decrease was slightly less pronounced with a median half Log decrease ([…] median: 0.58; range 0.28-0.88 folds decrease). However, the comparison for the PBMCs was between week ˜35 and week ˜45 (end of cycle 3, AC3) instead of the end of all 4 cycles, because a snap frozen pellet was not available at the end of cycle 4 for PBMCs. The SIV reservoir in PBMCs was also monitored by SIV-IPDA comparing before cycle 1 (BC1) to the end of cycle 4 (AC4). […] Intact provirus declined similarly to the CA-vDNA with a median of half Log (median: 0.53; range:0-0.71 folds decrease).
as §1

[3] = tested on: PBMC from aviremic, ART-treated PLWH; test: Modified quantitative viral outgrowth assay (qVOA) with LRA; format: cell-based, human
Source text: Considering that TGF-β is present in FBS, used to supplement PBMC and T cell cultures, and that PBMC from people living with HIV-1 release TGF-β in culture supernatants (56-58), we hypothesized that blocking TGF-β while reversing HIV-1 latency ex vivo from PBMC of ART-treated, aviremic individuals may lead to higher frequency of HIV-1 reactivation than in untreated cultures. To test this hypothesis, we used a modified version of the classical quantitative viral outgrowth assay (qVOA) (59). We used whole PBMC to assess potential latency reactivation from any HIV-1-infected circulating cell and not only from resting CD4+ T cells (FIG. 6A). PBMC from two different sets of aviremic, ART-treated donors (Table 1) were activated with PMA (at 100 ng/ml or 10 ng/ml) and with Vorinostat (SAHA, at 1 μM) in presence of T20 and galunisertib (1 μM) or mock solution. […] Infectious unit per million cells (IUPM) were calculated based on the number of infected wells as determined by p24 ELISA (FIG. 6A). […]
PBMC were thawed and cultured in RPMI 10% FBS at 3×10^6/ml. […] 50 μl of supernatant was collected after 7, 14 and 21 days of co-culture and monitored for p24 presence by p24 ELISA (PerkinElmer). IUPM were calculated based on the number of positive wells using the IUPM calculator provided by Dr. Siliciano (76). […]

## Cc1cccc(-c2nn3c(c2-c2ccnc4ccc(C(N)=O)cc24)CCC3)n1 [galunisertib, Galunisertib]
SIVmac251 or SIVmac239; 5 or 10 mg/kg orally twice per day, 1 or 2 weeks
  macaques with increase in pVL over 100 copies/ml: 2 of the 7
SIVmac251 or SIVmac239; single macaque (A14X)
  increase in pVL in macaque not continuously suppressed before treatment: > 2 Log
SIVmac239M2 [1]; 8 macaques, four 2-week cycles
  cell-associated SIV DNA in lymph nodes, gut and PBMC: Half to 1 Log decrease
SIVmac239M2 [1]; BC1 (week 35 pi) vs AC4 (week 49 pi)
  CA-vDNA decrease in gut, median: 0.77 folds
SIVmac239M2 [1]; BC1 vs AC3
  CA-vDNA decrease in PBMC, range: 0.28-0.88 folds
SIVmac239M2 [1]; BC1 vs AC4
  CA-vDNA decrease in gut, range: 0.33-0.94 folds
SIVmac239M2 [1]; BC1 vs end of cycle 3 (AC3)
  CA-vDNA decrease in PBMC, median: 0.58 folds
SIVmac239M2 [1]; Example 5, end of cycle 4 vs before Gal
  cell-associated viral DNA in lymph nodes and colorectal biopsies: decreased by over a Log
SIVmac239M2 [1]; right axillary LN, BC1 vs AC4
  CA-vDNA decrease in LN, median: 0.93 folds
  CA-vDNA decrease in LN, range: 0.33-0.98 folds
SIVmac239M2 [2]; BC1 (week 35 pi) to AC4 (week 49 pi), median
  decrease of intact pro-virus in PBMC: 3 fold
SIVmac239M2 [2]; PBMC, BC1 vs AC4
  intact provirus decline by SIV-IPDA, median: 0.53 folds
  intact provirus decline by SIV-IPDA, range: 0-0.71 folds
  total and intact provirus by SIV-IPDA: significant decreases
[3]; galunisertib 1 μM vs mock, PMA 100 or 10 ng/ml or Vorinostat 1 μM
  frequency of latency reactivation events (IUPM): significantly higher frequency
[3]; galunisertib-treated PBMC vs mock treated
  vRNA in supernatant after PMA stimulation: higher levels of vRNA
